Data reported in patent US20260076372A1, “SPRAYABLE ANTIFUNGAL COMPOSITION FOR USE IN THE FIELD OF AGRICULTURE, AND ASSOCIATED METHOD AND USE” (GAIAGO, priority 2022, published 2026).

What was measured:
Fusarium graminearum = test: microbe, parasite or virus in culture; type: cell-based
[1] = system: Septoria tritici (Zymoseptoria tritici); test: in vitro 96-well micro-titration test on Septoria tritici / Zymoseptoria tritici; type: cell-based
Pythium ultimum = test: in vitro test on P. ultimum
Protocol: The evaluations were performed with a 96-well micro-titration test to evaluate the in vitro fungicidal activity of each solution.
Three repetitions (wells) were carried out. The value of the concentration making it possible to inhibit the growth of each pathogen (EC50) to 50% was determined using the optical density measurement.

Alternaria solani = test: in vitro 96-well micro-titration test on Alternaria solani spores; type: cell-based

SMILES: C[C@@H]1CC[C@@]2(OC1)O[C@H]1C[C@H]3[C@@H]4CC[C@@H]5C[C@@H](O)CC[C@]5(C)[C@H]4CC[C@]3(C)[C@H]1[C@@H]2C [smilagenin, (25R)-5beta-Spirostan-3beta-ol]
- inhibition of Fusarium graminearum (Fusarium graminearum; 0.0064 μg/ml or ppm): 5.00%
- inhibition of Fusarium graminearum (Fusarium graminearum; 0.032 μg/ml or ppm): −2.60%
- inhibition of Fusarium graminearum (Fusarium graminearum; 0.16 μg/ml or ppm): −0.80%
- inhibition of Fusarium graminearum (Fusarium graminearum; 0.8 μg/ml or ppm): 2.40%
- inhibition of Fusarium graminearum (Fusarium graminearum; 4 μg/ml or ppm): 1.50%
- inhibition of Fusarium graminearum (Fusarium graminearum; 20 μg/ml or ppm): −8.70%
- inhibition of Fusarium graminearum (Fusarium graminearum; 100 μg/ml or ppm): 2.00%
- EC95 (μg/ml or ppm) (Fusarium graminearum; Fusarium graminearum, Table 9): >100 μg/ml or ppm
- EC50 (Fusarium graminearum; Fusarium graminearum, read-out: EC50 (μg/ml or ppm)): > 100 µg/mL
- % inhibition of pathogen growth (S. tritici) ([1]; 0.0064 μg/ml or ppm): −3.90%
- % inhibition of pathogen growth (S. tritici) ([1]; 0.032 μg/ml or ppm): −2.30%
- % inhibition of pathogen growth (S. tritici) ([1]; 0.16 μg/ml or ppm): −1.90%
- % inhibition of pathogen growth (S. tritici) ([1]; 0.8 μg/ml or ppm): −9.50%
- % inhibition of pathogen growth (S. tritici) ([1]; 4 μg/ml or ppm): 0.00%
- % inhibition of pathogen growth (S. tritici) ([1]; 20 μg/ml or ppm): −2.10%
- % inhibition of pathogen growth (S. tritici) ([1]; 100 μg/ml or ppm): −0.20%
- EC50 ([1]; Zymoseptoria tritici, S. tritici, Table 12, read-out: EC50 (μg/ml or ppm)): > 100 µg/mL
- inhibition of P. ultimum (Pythium ultimum; 0.0064 μg/ml or ppm): −6.70%
- inhibition of P. ultimum (Pythium ultimum; 0.032 μg/ml or ppm): 0.00%
- inhibition of P. ultimum (Pythium ultimum; 0.16 μg/ml or ppm): −0.60%
- inhibition of P. ultimum (Pythium ultimum; 0.8 μg/ml or ppm): 0.10%
- inhibition of P. ultimum (Pythium ultimum; 4 μg/ml or ppm): −3.40%
- inhibition of P. ultimum (Pythium ultimum; 20 μg/ml or ppm): −0.10%
- inhibition of P. ultimum (Pythium ultimum; 100 μg/ml or ppm): 0.00%
- EC50 (Pythium ultimum; Globisporangium ultimum, read-out: EC50 (μg/ml or ppm)): > 100 µg/mL
- EC95 (μg/ml or ppm) (Pythium ultimum; P. ultimum, Table 14): >100 μg/ml or ppm
- inhibition (%) of A. solani growth (Alternaria solani; 0.0064 μg/ml or ppm in water): 7.9%
- inhibition (%) of A. solani growth (Alternaria solani; 0.032 μg/ml or ppm in water): 10.1%
- inhibition (%) of A. solani growth (Alternaria solani; 0.16 μg/ml or ppm in water): 19.6%
- inhibition (%) of A. solani growth (Alternaria solani; 0.8 μg/ml or ppm in water): 22.6%
- inhibition (%) of A. solani growth (Alternaria solani; 4 μg/ml or ppm in water): 28.0%
- inhibition (%) of A. solani growth (Alternaria solani; 20 μg/ml or ppm in water): 29.3%
- inhibition (%) of A. solani growth (Alternaria solani; 40 μg/ml or ppm in water): 30%
